Legend:
Assay type in all cases: in vivo
[1] = test system: Matricaria inodora (MATIN); assay: Pre-emergence herbicidal action against MATIN
Outline: (§1)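 Application rates ran to 320 g/ha or lower, with several dosages tested on the same weeds. The compound, as wettable powder or emulsion concentrate, is sprayed pre-emergence onto soil over sown seeds; greenhouse growth follows, and effect is rated visually after roughly 3 weeks.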

Avena fatua (AVEFA) = assay: Pre-emergence herbicidal action against AVEFA; settings: visual scoring after about 3 weeks vs untreated controls
Outline: as §1

[2] = test system: Pharbitis purpurea (PHBPU); assay: Pre-emergence herbicidal action against PHBPU
Outline: as §1

[3] = test system: Polygonum convolvulus (POLCO); assay: Pre-emergence herbicidal action against POLCO
Outline: as §1

Lolium rigidum (LOLRI) = assay: Pre-emergence herbicidal action against LOLRI
Outline: as §1

Setaria viridis (SETVI) = assay: Post-emergence herbicidal action against SETVI
Outline: (§2)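 Post-emergence greenhouse spray, one-leaf stage, 600 l/ha water plus 0.5% additive; WP or EC formulations; application rates 320 g/ha or lower. Visual % damage vs untreated controls at ~3 weeks.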

[4] = test system: Verconica persica (VERPE); assay: Pre-emergence herbicidal action against VERPE
Outline: as §1

Viola tricolor (VIOTR) = assay: Post-emergence herbicidal action against VIOTR
Outline: as §2

[5] = test system: Verconica persica (VERPE); assay: Post-emergence herbicidal action against VERPE
Outline: as §2

[6] = test system: Polygonum convolvulus (POLCO); assay: Post-emergence herbicidal action against POLCO
Outline: as §2

| Compound | Pre-emergence action against MATIN in % ([1]; dosage 80 g/ha) | Pre-emergence action against MATIN in % ([1]; dosage 320 g/ha) | Pre-emergence action against AVEFA in % (Avena fatua (AVEFA); 80 g/ha) | Pre-emergence action against AVEFA in % (Avena fatua (AVEFA); 320 g/ha) | Pre-emergence action against PHBPU in % ([2]; dosage 80 g/ha) | Pre-emergence action against PHBPU in % ([2]; dosage 320 g/ha) | Pre-emergence action against POLCO in % ([3]; dosage 80 g/ha) | Pre-emergence action against POLCO in % ([3]; dosage 320 g/ha) | Pre-emergence action against LOLRI in % (Lolium rigidum (LOLRI); dosage 80 g/ha) | Pre-emergence action against LOLRI in % (Lolium rigidum (LOLRI); dosage 320 g/ha) | Post-emergence action against SETVI in % (Setaria viridis (SETVI); dosage 80 g/ha) | Post-emergence action against SETVI in % (Setaria viridis (SETVI); dosage 320 g/ha) | Pre-emergence action against VERPE in % ([4]; dosage 80 g/ha) | Pre-emergence action against VERPE in % ([4]; dosage 320 g/ha) | Post-emergence action against VIOTR in % (Viola tricolor (VIOTR); 80 g/ha) | Post-emergence action against VIOTR in % (Viola tricolor (VIOTR); 320 g/ha) | Post-emergence action against VERPE in % ([5]; 320 g/ha, VERPE) | Post-emergence action against VERPE in % ([5]; dosage 80 g/ha) | Post-emergence action against POLCO in % ([6]; dosage 80 g/ha) | Post-emergence action against POLCO in % ([6]; dosage 320 g/ha) |
| --- | --- | --- | --- | --- | --- | --- | --- | --- | --- | --- | --- | --- | --- | --- | --- | --- | --- | --- | --- | --- |
| COC(=O)C(C)NC(=O)[C@@H](C)Oc1nn(-c2ccccn2)c(-c2cncc(F)c2)c1Cl (stereo partly shown) [Example I-199] | 90% | 100% | 80% | 90% | 80% | 90% | 80% | 90% | 100% | 100% | 80% | 90% | 90% | 100% | 80% | 80% | 90% | 90% |  |  |
| COC(=O)[C@@H](C)Oc1nn(-c2nc(F)ccc2F)c(-c2cncc(F)c2)c1Br [Example I-191] | 90% | 90% |  | 100% | 80% | 90% | 80% | 90% | 90% | 90% | 80% | 80% | 100% | 100% |  | 80% | 90% | 80% |  |  |
| O=C(O)COc1nn(-c2nc(F)ccc2F)c(-c2cncc(F)c2)c1C1CC1 [Example I-148] | 90% | 90% | 80% | 90% |  | 90% | 80% | 90% | 90% | 100% | 80% | 80% | 90% | 100% | 80% | 80% | 80% | 80% |  |  |
| C[C@@H](Oc1nn(-c2ncccc2F)c(-c2ccc(F)nc2)c1Br)C(=O)O [Example I-18] | 100% | 100% | 90% | 100% |  | 90% | 100% | 100% | 90% | 100% | 80% | 80% | 90% | 100% |  | 80% |  |  |  |  |
| O=C(O)COc1nn(-c2ccccn2)c(-c2cncnc2)c1Br [Example I-66] |  | 90% |  | 90% |  |  | 90% | 90% | 80% | 100% | 80% | 90% |  | 100% | 80% | 90% | 90% | 90% | 80% | 90% |
| COC(=O)COc1nn(-c2nc(F)ccc2F)c(-c2cncc(F)c2)c1C1CC1 [Example I-164] | 90% | 100% | 90% | 90% | 80% | 90% |  | 100% | 100% | 100% | 80% | 80% | 90% | 100% |  | 80% | 80% | 80% |  |  |
| COC(=O)[C@@H](C)COC(=O)COc1nn(-c2ccccn2)c(-c2cncc(F)c2)c1Br [Example I-194] | 90% | 90% | 80% | 90% | 90% | 90% | 80% | 100% | 90% | 100% | 90% | 90% |  | 90% | 80% | 80% | 80% |  |  |  |
| O=C(O)COc1nn(-c2ncccc2F)c(-c2ccc(F)nc2)c1Br [Example I-17] | 90% | 100% | 80% | 100% |  | 90% | 90% | 100% |  | 100% | 80% | 80% |  | 100% | 80% | 80% | 80% |  |  |  |
| COC(=O)C(C)COC(=O)[C@@H](C)Oc1nn(-c2ccccn2)c(-c2cncc(F)c2)c1Cl (stereo partly shown) [Example I-198] | 90% | 90% |  | 90% | 80% | 90% | 90% | 90% | 100% | 100% | 80% | 80% | 90% | 100% |  | 80% | 80% | 80% |  |  |
| COC(=O)COc1nn(-c2ncccc2F)c(-c2cncc(F)c2)c1Br [Example I-16] | 100% | 100% |  | 90% |  | 80% | 90% | 90% | 90% | 100% | 80% | 80% |  | 90% | 80% | 80% | 90% | 80% |  |  |

From patent US20240041042A1, “1-(PYRIDYL)-5-AZINYLPYRAZOLE DERIVATIVES, AND THEIR USE FOR CONTROL OF UNDESIRED PLANT GROWTH” (Bayer Aktiengesellschaft, priority 2020, published 2024)
